Source: publication PMC10562414, “GLP-1R signaling neighborhoods associate with the susceptibility to adverse drug reactions of incretin mimetics” (Nature Communications, 2023)

Test system: GLP-1R-expressing HEK293 cells (phosphoproteome)
Experiment: Phosphoproteomics time course (5, 15, 30, 60 min) in GLP-1R-expressing cells
Assay type: cell-based, human
Procedure: P values were calculated by a two-sided unpaired t-test.
HEK293 cells (350,000 cells/mL) were transfected in suspension using 3 μg of linear PEI (MW 25,000) per 1 μg of plasmid DNA and seeded onto poly-D-lysine-coated 60 mm dishes at a density of 1,750,000 cells per dish. After a 24-h incubation, cells were washed twice with PBS and placed in starvation media (DMEM with penicillin/streptomycin). After a 48-h incubation, cells were washed twice with HBSS and maintained in the same buffer. […] Cell extracts were prepared as previously described[64]–[66]. In short, 200 μL of the lysis buffer preheated at 95 °C (4% sodium dodecyl sulfate in 50 mM Tris adjusted to pH 8.5) was added to the cells. The samples were then denatured at 95 °C for 10 min, placed on ice and then sonicated using a probe sonicator (3 sec on, 3 sec off pulse, 1 min, 30% amplitude) (Branson). Lysate protein concentration was determined using the Pierce bicinchoninic acid assay kit (Thermo Fisher Scientific) according to the manufacturer’s instructions. The lysates were reduced using 5 mM dithiothreitol for 1 h at room temperature and alkylated using 15 mM iodoacetamide for 1 h at room temperature in the dark. Proteins were precipitated and digested on beads using MagReSyn Amine magnetic beads (ReSyn Biosciences) according to the manufacturer’s instructions. Protein digestion was conducted overnight at 37 °C with lysyl endopeptidase (LysC, Wako) (1:150 LysC/protein, w/w) and trypsin (1:300 trypsin/protein, w/w). 20% TFA, 2 M glycolic acid in 80% ACN were added to the samples at a 1:1 ratio for phosphopeptide enrichment using MagReSyn TiO2 magnetic beads (ReSyn Biosciences) according to the manufacturer’s instructions. The enriched phosphopeptides were dried overnight in a SpeedVac, resuspended into 5% formic acid (FA), desalted using StageTip (Thermo Fisher Scientific) according to the manufacturer’s instructions and dried in a SpeedVac. The experiment was performed in biological triplicates.
All parameters and settings regarding the acquisition of the proteomics data can be found in Supplementary Data 11, 12. For data acquisition, the instrument was set to peptide mode, with a trapping pressure set as low (2mTorr). An EASY-Spray Source (Thermo Fisher Scientific) was used and the column temperature was maintained with the integrated, temperature-controlled heater at 55 °C throughout the experiment. For the data presented in Fig. 5d, the column was heated at 50 °C following the manufacturer’s instructions (IonOpticks).
Acquired raw files were converted to mzML format by MSConvert (version 3.0.21258)[67] applying peak picking of the mass spectra with the vendor-provided algorithm (Thermo Fisher Scientific). The mzML files were analyzed using the FragPipe GUI v18 for both library and DIA search. […] Trypsin with up to 2 missed cleavages was set as digestion enzyme, oxidation of methionine, acetylation of the N-terminus and phosphorylation on serine, threonine and tyrosine (maximal occurrence was set to three) were set as variable modifications. Carbamidomethylation of cysteine residues was set as a fixed modification. Peptide length was restricted to 7 to 50 amino acids, and 500 to 5000 Da. The precursor tolerance was set to ±20 ppm, fragment mass tolerance to 20 ppm and MSBooster was enabled. The resulting peptide-spectrum matches were adjusted to a 1% false discovery rate with Percolator[69] as part of the Philosopher toolkit (v4.4)[70] and converted to a spectra library. DIA files were analyzed by DIA-NN 1.8.1[71], [72] using the previously generated library and monitor-command mode. Peptide quantification was performed based on the fragment elution profiles from the MS2 level (area under the curve).
All further data processing was performed in R (version 4.2.1). Only phosphopeptides with a localization score of at least 0.75 were considered for further analysis. […]

[1] = 15min, relative to time-matched vehicle condition, p.value […], passed.all.criteria 0
[2] = 60min, relative to time-matched vehicle condition, p.value […], passed.all.criteria 0

N#Cc1ccc(COc2cccc(C3CCN(Cc4nc5ccc(C(=O)O)cc5n4C[C@@H]4CCO4)CC3)n2)c(F)c1 [Danuglipron]
regulation of RAB1B and α-synuclein phosphorylation, in words (1 μM): significantly regulated by danuglipron | number of phosphopeptides overlapping between danuglipron and semaglutide treatments (1 μM, 30 min): 8 | number of significantly altered phosphopeptides (1 μM, 30 min, drug-specific, vs vehicle): 220 | Normalized phosphoproteomics data, ESYT2 S691 (A0FGR8) (5min, repA): 19.6049 | Normalized phosphoproteomics data, HMX3 S60 (A6NHT5) (5min, repA): 20.3906 | Normalized phosphoproteomics data, HNRNPA1L3 Y250 (A0A2R8Y4L2) (5min, repA): 20.6785 | Normalized phosphoproteomics data, POM121C T710 (A8CG34) (5min, repA): 20.0234 | Normalized phosphoproteomics data, SBNO1 S794 (A3KN83) (5min, repA): 17.9318 | Normalized phosphoproteomics data, ESYT2 S691 (A0FGR8) (5min, repB): 19.6976 | Normalized phosphoproteomics data, HMX3 S60 (A6NHT5) (5min, repB): 20.283 | Normalized phosphoproteomics data, HNRNPA1L3 Y250 (A0A2R8Y4L2) (5min, repB): 20.3164 | Normalized phosphoproteomics data, POM121C T710 (A8CG34) (5min, repB): 20.7371 | Normalized phosphoproteomics data, SBNO1 S794 (A3KN83) (5min, repB): 18.211 | Normalized phosphoproteomics data, ESYT2 S691 (A0FGR8) (5min, repC): 21.1682 | Normalized phosphoproteomics data, HMX3 S60 (A6NHT5) (5min, repC): 19.9991 | Normalized phosphoproteomics data, HNRNPA1L3 Y250 (A0A2R8Y4L2) (5min, repC): 20.6414 | Normalized phosphoproteomics data, POM121C T710 (A8CG34) (5min, repC): 20.3991 | Normalized phosphoproteomics data, SBNO1 S794 (A3KN83) (5min, repC): 18.5685 | log2.foldchange, FOXK2 S30 (Q01167) (5min, relative to time-matched vehicle condition, p.value 0.0181801, passed.all.criteria 0): 0.5529 | log2.foldchange, EIF3J S11 (O75822) (5min, relative to time-matched vehicle condition, p.value 0.0905175, passed.all.criteria 0): -0.3791 | log2.foldchange, SCFD1 S14 (Q8WVM8) (5min, relative to time-matched vehicle condition, p.value 0.889419, passed.all.criteria 0): 0.04613 | log2.foldchange, CABLES2 T26;S27 (Q9BTV7) (5min, relative to time-matched vehicle condition, p.value 0.907346, passed.all.criteria 0): 0.07188 | log2.foldchange, POLE4 S25 (Q9NR33) (5min, relative to time-matched vehicle condition, p.value […], passed.all.criteria 0): 0.5824 | Normalized phosphoproteomics data, ESYT2 S691 (A0FGR8) (15min, repA): 18.6451 | Normalized phosphoproteomics data, HMX3 S60 (A6NHT5) (15min, repA): 20.5059 | Normalized phosphoproteomics data, HNRNPA1L3 Y250 (A0A2R8Y4L2) (15min, repA): 20.4577 | Normalized phosphoproteomics data, POM121C T710 (A8CG34) (15min, repA): 20.5017 | Normalized phosphoproteomics data, SBNO1 S794 (A3KN83) (15min, repA): 18.6084 | Normalized phosphoproteomics data, ESYT2 S691 (A0FGR8) (15min, repB): 18.4413 | Normalized phosphoproteomics data, HMX3 S60 (A6NHT5) (15min, repB): 22.3446 | Normalized phosphoproteomics data, HNRNPA1L3 Y250 (A0A2R8Y4L2) (15min, repB): 20.4067 | Normalized phosphoproteomics data, POM121C T710 (A8CG34) (15min, repB): 18.6564 | Normalized phosphoproteomics data, SBNO1 S794 (A3KN83) (15min, repB): 17.9968 | Normalized phosphoproteomics data, ESYT2 S691 (A0FGR8) (15min, repC): 20.8902 | Normalized phosphoproteomics data, HMX3 S60 (A6NHT5) (15min, repC): 20.8902 | Normalized phosphoproteomics data, HNRNPA1L3 Y250 (A0A2R8Y4L2) (15min, repC): 20.9108 | Normalized phosphoproteomics data, POM121C T710 (A8CG34) (15min, repC): 19.3031 | Normalized phosphoproteomics data, SBNO1 S794 (A3KN83) (15min, repC): 18.3915 | log2.foldchange, EIF3J S11 (O75822) (15min, relative to time-matched vehicle condition, p.value 0.0462694, passed.all.criteria 0): 0.3639 | log2.foldchange, SCFD1 S14 (Q8WVM8) (15min, relative to time-matched vehicle condition, p.value 0.844107, passed.all.criteria 0): 0.06372 | log2.foldchange, CABLES2 T26;S27 (Q9BTV7) [1]: 0.288 | log2.foldchange, FOXK2 S30 (Q01167) [1]: 0.1878 | log2.foldchange, POLE4 S25 (Q9NR33) [1]: -0.08464 | Normalized phosphoproteomics data, ESYT2 S691 (A0FGR8) (30min, repA): 21.4861 | Normalized phosphoproteomics data, HMX3 S60 (A6NHT5) (30min, repA): 20.1311 | Normalized phosphoproteomics data, HNRNPA1L3 Y250 (A0A2R8Y4L2) (30min, repA): 20.8036 | Normalized phosphoproteomics data, POM121C T710 (A8CG34) (30min, repA): 20.7324 | Normalized phosphoproteomics data, SBNO1 S794 (A3KN83) (30min, repA): 18.5741 | Normalized phosphoproteomics data, ESYT2 S691 (A0FGR8) (30min, repB): 20.3489 | Normalized phosphoproteomics data, HMX3 S60 (A6NHT5) (30min, repB): 20.2063 | Normalized phosphoproteomics data, HNRNPA1L3 Y250 (A0A2R8Y4L2) (30min, repB): 19.9638 | Normalized phosphoproteomics data, POM121C T710 (A8CG34) (30min, repB): 20.3008 | Normalized phosphoproteomics data, SBNO1 S794 (A3KN83) (30min, repB): 18.1584 | Normalized phosphoproteomics data, ESYT2 S691 (A0FGR8) (30min, repC): 19.608 | Normalized phosphoproteomics data, HMX3 S60 (A6NHT5) (30min, repC): 21.342 | Normalized phosphoproteomics data, HNRNPA1L3 Y250 (A0A2R8Y4L2) (30min, repC): 21.4798 | Normalized phosphoproteomics data, POM121C T710 (A8CG34) (30min, repC): 19.571 | Normalized phosphoproteomics data, SBNO1 S794 (A3KN83) (30min, repC): 18.2269 | log2.foldchange, POLE4 S25 (Q9NR33) (30min, relative to time-matched vehicle condition, p.value 0.0332159, passed.all.criteria 0): 0.4522 | log2.foldchange, CABLES2 T26;S27 (Q9BTV7) (30min, relative to time-matched vehicle condition, p.value 0.0661459, passed.all.criteria 0): -0.4521 | log2.foldchange, TRAF2 T7;S11 (Q12933) (30min, relative to time-matched vehicle condition, p.value 0.177246, passed.all.criteria 0): 1.124 | log2.foldchange, FOXK2 T13 (Q01167) (30min, relative to time-matched vehicle condition, p.value 0.184134, passed.all.criteria 0): -0.3505 | log2.foldchange, SCFD1 S14 (Q8WVM8) (30min, relative to time-matched vehicle condition, p.value […], passed.all.criteria 0): -0.2911 | Normalized phosphoproteomics data, ESYT2 S691 (A0FGR8) (60min, repA): 20.822 | Normalized phosphoproteomics data, HMX3 S60 (A6NHT5) (60min, repA): 21.3332 | Normalized phosphoproteomics data, HNRNPA1L3 Y250 (A0A2R8Y4L2) (60min, repA): 20.6441 | Normalized phosphoproteomics data, POM121C T710 (A8CG34) (60min, repA): 20.5636 | Normalized phosphoproteomics data, SBNO1 S794 (A3KN83) (60min, repA): 19.2753 | Normalized phosphoproteomics data, ESYT2 S691 (A0FGR8) (60min, repB): 21.3269 | Normalized phosphoproteomics data, HMX3 S60 (A6NHT5) (60min, repB): 22.1586 | Normalized phosphoproteomics data, HNRNPA1L3 Y250 (A0A2R8Y4L2) (60min, repB): 20.7268 | Normalized phosphoproteomics data, POM121C T710 (A8CG34) (60min, repB): 20.6117 | Normalized phosphoproteomics data, SBNO1 S794 (A3KN83) (60min, repB): 18.9035 | Normalized phosphoproteomics data, ESYT2 S691 (A0FGR8) (60min, repC): 21.6663 | Normalized phosphoproteomics data, HMX3 S60 (A6NHT5) (60min, repC): 20.1861 | Normalized phosphoproteomics data, HNRNPA1L3 Y250 (A0A2R8Y4L2) (60min, repC): 20.5504 | Normalized phosphoproteomics data, POM121C T710 (A8CG34) (60min, repC): 19.5289 | Normalized phosphoproteomics data, SBNO1 S794 (A3KN83) (60min, repC): 18.62 | log2.foldchange, POLE4 S25 (Q9NR33) (60min, relative to time-matched vehicle condition, p.value 0.629383, passed.all.criteria 0): 0.05873 | log2.foldchange, SCFD1 S14 (Q8WVM8) (60min, relative to time-matched vehicle condition, p.value 0.819487, passed.all.criteria 0): -0.06624 | log2.foldchange, CABLES2 T26;S27 (Q9BTV7) [2]: -0.3341 | log2.foldchange, EIF3J S11 (O75822) [2]: -0.413 | log2.foldchange, TRAF2 T7;S11 (Q12933) [2]: 0.4682
